This note sets out measurements from patent USRE47689E1, “Compounds for treating spinal muscular atrophy” (PTC Therapeutics, Inc., priority 2011, dated 2019).

The structures appear in SMILES notation. Where two headings read alike, the source gives them in different places.

In series [1] the test system is SMN2 minigene (full length SMN2 minigene mRNA containing SMN2 exon 7). The series can be described thus: SMN2 minigene mRNA splicing RT-qPCR assay in cultured cells. It counts as cell-based, human. The note with it: Homo sapiens, HEK293-H, read-out: EC1.5x for production of full length SMN2 mRNA. A digest of the protocol: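 Full-length SMN2 minigene mRNA (exon 7 included), minigene-specific and not endogenous SMN, quantified by RT-qPCR multiplexed with GAPDH in stably transfected HEK293H cells after 24 h compound exposure at 37° C. Abundance from efficiency-corrected Ct, normalized to GAPDH and vehicle; EC1.5x reported as star bins.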
(Quantitative PCR measures a nucleic acid by following its amplification.)

The subject of the next series is Smn protein. Nature of the series: Smn protein assay in cultured cells (SMN HTRF). It counts as cell-based, human. As to conditions: 48 hours; for maximum fold (Fold) increase of Smn protein: SMA patient fibroblast cells, 7-point concentration data, fold increase relative to vehicle control (SMN HTRF); for EC1.5x (concentration giving 1.5-fold Smn protein increase): SMA Type 1 patient fibroblast cells (GM03813), 7-point concentration curve, SMN HTRF, concentration producing 1.5 times Smn protein vs DMSO vehicle control, read-out: EC1.5x for Smn protein expression. A digest of the protocol:
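Smn in SMA fibroblast lysates, measured by anti-SMN HTRF after 48 h compound exposure; EC1.5x from fold change over vehicle.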

[2] abbreviates: HEK293H cells stably transfected with SMN2-A minigene, 24 hours, 7-point concentration curve, 1.5-fold relative to vehicle-treated cells.

A word on the melting point: it is the temperature of the solid-liquid transition. With `O=c1oc2cc(CN3CCC(O)CC3)ccc2cc1-c1cn2ccsc2n1` [Compound 346, 7-[(4-hydroxypiperidin-1-yl)methyl]-3-(imidazo[2,1-b][1,3]thiazol-6-yl)-2H-chromen-2-one], the melting point was in the range of 248 to 252 °C. In addition, in series [1] (setting [2]), the EC (1.5-fold) was in the range of 3 to 30 µM. The “maximum fold (Fold) increase of Smn protein” value (shortened to “maximum fold (Fold) increase”) in the series with Smn protein is “** (fold increase between >1.2 and ≤1.35)”.
In turn, `Cc1cn2cc(-c3cc4ccc(CCCN)cc4oc3=O)nc2c(C)n1` [Cpd 927, 7-(3-aminopropyl)-3-(6,8-dimethylimidazo[1,2-a]pyrazin-2-yl)-2H-chromen-2-one] yielded a melting point of 212 to 216 °C. Besides, the EC (1.5-fold) in series [1] (setting [2]) was 1 to 3 µM. The “maximum fold (Fold) increase” value with Smn protein is “** (fold increase between >1.2 and ≤1.35)”.
In turn, `Cc1cn2cc(-c3cc4ccc(N[C@@H]5CCN(CCO)C5)cc4oc3=O)nc2c(C)n1` [Compound 732, 3-(6,8-dimethylimidazo[1,2-a]pyrazin-2-yl)-7-{[(3R)-1-(2-hydroxyethyl)pyrrolidin-3-yl]amino}-2H-chromen-2-one] returned a melting point of 211 to 219 °C. Also, the EC (1.5-fold) in series [1] (setting [2]) was less than 0.1 µM. For the same molecule, in the series on Smn protein, the EC1.5x (concentration giving 1.5-fold Smn protein increase) was less than 300 nM; the “maximum fold (Fold) increase” value is “*** (fold increase between >1.35 and ≤1.5)”.
Molecule `C[C@@H]1CN(c2ccc3cc(-c4cn5cc(Cl)ccc5n4)c(=O)oc3c2)C[C@H](C)N1` [Compound 105, 3-(6-chloroimidazo[1,2-a]pyridin-2-yl)-7-[(3R,5S)-3,5-dimethylpiperazin-1-yl]-2H-chromen-2-one] gave a melting point of 220 to 225 °C. In addition, the EC (1.5-fold) in series [1] (setting [2]) lay in the range of 1 to 3 µM. Besides, in the series with Smn protein, the EC1.5x (concentration giving 1.5-fold Smn protein increase) was 300 to 1000 nM; the “maximum fold (Fold) increase” value is “**** (fold increase between >1.5 and ≤1.65)”.
Take `Cc1cn2cc(-c3cc4ccc(N5C[C@@H](C)N(C)[C@@H](C)C5)cc4oc3=O)nc2c(C)n1` [Compound 605, 3-(6,8-dimethylimidazo[1,2-a]pyrazin-2-yl)-7-[(3R,5S)-3,4,5-trimethylpiperazin-1-yl]-2H-chromen-2-one]: the melting point was 229 to 232 °C. The EC (1.5-fold) in series [1] (setting [2]) is less than 0.1 µM. Moreover, in the series on Smn protein, the EC1.5x (concentration giving 1.5-fold Smn protein increase) was less than 300 nM and the “maximum fold (Fold) increase” value is “***** (fold increase >1.65)”.
As for `O=c1oc2cc(N3CCNCC3)ccc2cc1-c1cccc(F)n1` [Compound 380, 3-(6-fluoropyridin-2-yl)-7-(piperazin-1-yl)-2H-chromen-2-one], the melting point is 196 to 198 °C. Further, the EC (1.5-fold) in series [1] (24 h) is 0.3 to 1 µM. The “maximum fold (Fold) increase” value in the series on Smn protein is “** (fold increase between >1.2 and ≤1.35)”.
On to `Cc1cn2cc(-c3cc4ccc(N5C[C@H]6CNC[C@H]6C5)cc4oc3=O)nc2c(C)n1` [Compound 686, 3-(6,8-dimethylimidazo[1,2-a]pyrazin-2-yl)-7-[(3aR,6aS)-hexahydropyrrolo[3,4-c]pyrrol-2(1H)-yl]-2H-chromen-2-one], for which the melting point lay in the range of 250 to 260 °C. Moreover, in series [1] (setting [2]), the EC (1.5-fold) is less than 0.1 µM. Also, in the series with Smn protein, the EC1.5x (concentration giving 1.5-fold Smn protein increase) was less than 300 nM and the “maximum fold (Fold) increase” value is listed as “***** (fold increase >1.65)”.
With `Cc1cn2cc(-c3cc4ccc(N5CC[C@H]6CNC[C@H]65)cc4oc3=O)nc2c(C)n1` [Compound 687, 3-(6,8-dimethylimidazo[1,2-a]pyrazin-2-yl)-7-[(3aS,6aS)-hexahydropyrrolo[3,4-b]pyrrol-1(2H)-yl]-2H-chromen-2-one], the melting point lay within 243 to 253 °C. Also, the EC (1.5-fold) in series [1] (setting [2]) was less than 0.1 µM. For the same molecule, in the series on Smn protein, the EC1.5x (concentration giving 1.5-fold Smn protein increase) lay in the range of 1000 to 3000 nM; the “maximum fold (Fold) increase” value was “*** (fold increase between >1.35 and ≤1.5)”.
In turn, `C[C@H]1CN(c2ccc3cc(-c4cc5ccccc5o4)c(=O)oc3c2)CCN1` [Compound 603, 3-(1-benzofuran-2-yl)-7-[(3S)-3-methylpiperazin-1-yl]-2H-chromen-2-one] showed a melting point of 192 to 194 °C. Further, the EC (1.5-fold) in series [1] (setting [2]) was in the range of 0.3 to 1 µM. Moreover, in the series with Smn protein, the “maximum fold (Fold) increase” value was “* (maximum fold increase of ≤1.2)”.
As to `Cc1cn2cc(-c3cc4ccc(N5CCN(C)CC5)cc4oc3=O)nc2s1` [Compound 97, 3-(2-methylimidazo[2,1-b][1,3]thiazol-6-yl)-7-(4-methylpiperazin-1-yl)-2H-chromen-2-one], the melting point is greater than 300 °C. Also, in series [1] (setting [2]), the EC (1.5-fold) lay in the range of 1 to 3 µM. Moreover, in the series on Smn protein, the EC1.5x (concentration giving 1.5-fold Smn protein increase) is 3000 to 10000 nM; the “maximum fold (Fold) increase” value is “*** (fold increase between >1.35 and ≤1.5)”.
`Cc1cnc2nc(-c3cc4ccc(N5CCN(C)CC5)cc4oc3=O)cn2c1` [Compound 242, 3-(6-methylimidazo[1,2-a]pyrimidin-2-yl)-7-(4-methylpiperazin-1-yl)-2H-chromen-2-one] gave a melting point greater than 310 °C. In addition, the EC (1.5-fold) in series [1] (setting [2]) lay within 0.3 to 1 µM. In addition, in the series with Smn protein, the “maximum fold (Fold) increase” value was “*** (fold increase between >1.35 and ≤1.5)”.
For the molecule `Cc1csc(-c2cc3ccc(N4C[C@@H](C)N[C@@H](C)C4)cc3oc2=O)n1` [Compound 286, 7-[(3R,5S)-3,5-dimethylpiperazin-1-yl]-3-(4-methyl-1,3-thiazol-2-yl)-2H-chromen-2-one], the melting point is 178 to 183 °C. Further, the EC (1.5-fold) in series [1] (setting [2]) lay within 1 to 3 µM. For the same molecule, the “maximum fold (Fold) increase” value with Smn protein is reported as “* (maximum fold increase of ≤1.2)”.
For `O=c1oc2cc(N3CCNCC3)cc(F)c2cc1-c1nc2ccccc2s1` [Cpd 160, 3-(1,3-benzothiazol-2-yl)-5-fluoro-7-(piperazin-1-yl)-2H-chromen-2-one], in that order: 256 to 260 °C, 0.3 to 1 µM and “* (maximum fold increase of ≤1.2)”.
`C[C@@H]1CN(c2ccc3cc(-c4cn5ccsc5n4)c(=O)oc3c2)C[C@H](C)N1` [Compound 167, 7-[(3R,5S)-3,5-dimethylpiperazin-1-yl]-3-(imidazo[2,1-b][1,3]thiazol-6-yl)-2H-chromen-2-one] showed a melting point of 263 to 265 °C. Moreover, in series [1] (setting [2]), the EC (1.5-fold) was in the range of 0.3 to 1 µM. Moreover, the “maximum fold (Fold) increase” value with Smn protein is “** (fold increase between >1.2 and ≤1.35)”.
Consider `CCCN1CCN(c2ccc3cc(-c4cn5cccc(Cl)c5n4)c(=O)oc3c2)CC1` [Compound 119, 3-(8-chloroimidazo[1,2-a]pyridin-2-yl)-7-(4-propylpiperazin-1-yl)-2H-chromen-2-one], for which the melting point was 245 to 247 °C. For the same molecule, the EC (1.5-fold) in series [1] (setting [2]) lay in the range of 0.3 to 1 µM. Moreover, the “maximum fold (Fold) increase” value in the series with Smn protein was “** (fold increase between >1.2 and ≤1.35)”.
Regarding `Cc1cn2cc(-c3cc4ccc(N5C[C@@H](C)N[C@@H](C)C5)cc4oc3=O)nc2s1` [Compound 152, 7-[(3R,5S)-3,5-dimethylpiperazin-1-yl]-3-(2-methylimidazo[2,1-b][1,3]thiazol-6-yl)-2H-chromen-2-one], the melting point was in the range of 210 to 212 °C. Also, the EC (1.5-fold) in series [1] (setting [2]) was less than 0.1 µM. Further, in the series on Smn protein, the EC1.5x (concentration giving 1.5-fold Smn protein increase) fell in the range of 1000 to 3000 nM; the “maximum fold (Fold) increase” value is “*** (fold increase between >1.35 and ≤1.5)”.
`C[C@H]1CN(c2ccc3cc(-c4cn5ccsc5n4)c(=O)oc3c2)CCN1` [Compound 205, 3-(imidazo[2,1-b][1,3]thiazol-6-yl)-7-[(3S)-3-methylpiperazin-1-yl]-2H-chromen-2-one] displayed a melting point of 230 to 233 °C. Moreover, the EC (1.5-fold) in series [1] (setting [2]) is less than 0.1 µM. In addition, the “maximum fold (Fold) increase” value in the series on Smn protein is “*** (fold increase between >1.35 and ≤1.5)”.
Regarding `Cc1cn2cc(-c3cc4ccc(N5CCCN(C(C)C)CC5)cc4oc3=O)cc2c(C)n1` [Compound 754, 3-(1,3-dimethylpyrrolo[1,2-a]pyrazin-7-yl)-7-[4-(propan-2-yl)-1,4-diazepan-1-yl]-2H-chromen-2-one], the melting point was 115 to 118 °C. In addition, the EC (1.5-fold) in series [1] (setting [2]) is less than 0.1 µM. Also, the “maximum fold (Fold) increase” value with Smn protein was “*** (fold increase between >1.35 and ≤1.5)”.
For the molecule `Cc1cn2cc(-c3cc4ccc(N5C[C@@H]6CCCN(CCO)[C@@H]6C5)cc4oc3=O)nc2c(C)n1` [Compound 796, 3-(6,8-dimethylimidazo[1,2-a]pyrazin-2-yl)-7-[(4aS,7aS)-1-(2-hydroxyethyl)octahydro-6H-pyrrolo[3,4-b]pyridin-6-yl]-2H-chromen-2-one], the melting point was in the range of 200 to 210 °C. For the same molecule, the EC (1.5-fold) in series [1] (setting [2]) is less than 0.1 µM. In the series with Smn protein, the EC1.5x (concentration giving 1.5-fold Smn protein increase) fell in the range of 300 to 1000 nM; the “maximum fold (Fold) increase” value was “**** (fold increase between >1.5 and ≤1.65)”.
`COc1ccc(-c2cc3ccc(N4CCN[C@H](C)C4)cc3oc2=O)cc1OC` [Compound 382, 3-(3,4-dimethoxyphenyl)-7-[(3R)-3-methylpiperazin-1-yl]-2H-chromen-2-one]: the melting point was 143 to 145 °C. Further, the EC (1.5-fold) in series [1] (setting [2]) lay in the range of 1 to 3 µM. The “maximum fold (Fold) increase” value with Smn protein was “* (maximum fold increase of ≤1.2)”.
With `CCN1CC[C@@H](Oc2ccc3cc(-c4cn5cc(C)nc(C)c5n4)c(=O)oc3c2)C1` [Compound 890, 3-(6,8-dimethylimidazo[1,2-a]pyrazin-2-yl)-7-{[(3R)-1-ethylpyrrolidin-3-yl]oxy}-2H-chromen-2-one], the melting point fell in the range of 193 to 195 °C. The EC (1.5-fold) in series [1] (setting [2]) was less than 0.1 µM. Moreover, in the series with Smn protein, the EC1.5x (concentration giving 1.5-fold Smn protein increase) was less than 300 nM and the “maximum fold (Fold) increase” value is recorded as “***** (fold increase >1.65)”.
